Test results from patent publication US7462599B2, “Use of effectors of glutaminyl and glutamate cyclases” (Probiodrug AG, priority 2003, dated 2008).
Several values for one entry are separate records, joined by “and”; a condition that tells them apart may be missing. Equal values may be shown once. Entries after “also recorded” stand apart in the source; their conditions may differ. Bridge positions count the residues as written; N and C are the ends. Square brackets hold non-standard residues; d marks the D form. Ends that are not written are not given here. Peptide text beside a SMILES is read from it. β3hQ = NC(=O)CC[C@H](N)CC(=O)O

Tests used:
[1] = target: T1, QC (Homo sapiens, UniProt Q16769); assay: Inhibitor assay, human QC catalyzed reaction (Ki determination); format: biochemical; parameters: The cDNA of the mature QC starting with codon 38 was fused in frame with the plasmid encoded 6× histidine tag; 6x histidine tag; made in house; host or cells: Pichia pastoris X33 (pPICZαB); also E. coli M15 (pQE-31)
[2] = target: T1, QC; assay: Enzyme inactivation/reactivation of human QC; format: biochemical; parameters: The cDNA of the mature QC starting with codon 38 was fused in frame with the plasmid encoded 6× histidine tag; 6x histidine tag; made in house; host or cells: Pichia pastoris X33 (pPICZαB); also E. coli M15 (pQE-31)
[3] = tested on: mammalian QC; details: Busby et al. 1987; cited from earlier work
[4] = Procedure: H-Glu(OMe)-βNA and H-Glu-βNA. […] These fluorogenic substrates were analyzed fluorometrically, utilizing pyroglutamyl aminopeptidase as auxiliary enzyme.
[5] = target: T1, QC; assay: Fluorometric QC assay with pyroglutamyl aminopeptidase as auxiliary enzyme, human QC; format: biochemical; parameters: The cDNA of the mature QC starting with codon 38 was fused in frame with the plasmid encoded 6× histidine tag; 6x histidine tag; made in house; host or cells: Pichia pastoris X33 (pPICZαB); also E. coli M15 (pQE-31); details: for conversion by human QC: analyzed fluorometrically; for inhibition of human QC by the peptide: H-Gln-AMC as substrate
Source text: Excitation/emission wavelengths were 320/410 nm.
H-Glu(OMe)-βNA and H-Glu-βNA.

[6] = target: T1, QC; assay: Continuous spectrophotometric assay of substrate conversion, human QC;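 for all read-outs here: initial rates read at 30 °C in a microplate reader, with activity quantified against an ammonia calibration curve under the same assay conditions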; format: biochemical; parameters: The cDNA of the mature QC starting with codon 38 was fused in frame with the plasmid encoded 6× histidine tag; 6x histidine tag; made in house; host or cells: Pichia pastoris X33 (pPICZαB); also E. coli M15 (pQE-31); details: for Ki / Ki*: n.i. = no inhibition; for Ki*: for substrate inhibition
Procedure: The initial velocities were evaluated and the enzymatic activity was determined from a standard curve of ammonia under assay conditions. All samples were measured at 30° C., using either the [sequence]luor Plus or the Sunrise (both from TECAN) reader for microplates. Kinetic data was evaluated using GraFit software.

[7] = target: T1, QC; assay: Discontinuous method for QC kinetic parameters; format: biochemical
[8] = target: T1, QC; assay: MALDI-TOF qualitative substrate conversion, human QC; format: biochemical; parameters: The cDNA of the mature QC starting with codon 38 was fused in frame with the plasmid encoded 6× histidine tag; 6x histidine tag; made in house; host or cells: Pichia pastoris X33 (pPICZαB); also E. coli M15 (pQE-31)
Procedure: Matrix-assisted laser desorption/ionization mass spectrometry was carried out using the Hewlett-Packard G2025 LD-TOF System with a linear time of flight analyzer. […] Samples (5 μl) were mixed with equal volumes of the matrix solution. For matrix solution we used DHAP/DAHC, prepared by solving 30 mg 2′,6′-dihydroxyacetophenone (Aldrich) and 44 mg diammonium hydrogen citrate (Fluka) in 1 ml acetonitrile/0.1% TFA in water (1/1, v/v). A small volume (≈1 μl) of the matrix-analyte-mixture was transferred to a probe tip and immediately evaporated in a vacuum chamber (Hewlett-Packard G2024A sample prep accessory) to ensure rapid and homogeneous sample crystallization.
In order to further investigate the specificity and selectivity of the QCs, peptides were synthesized comprising either a modified N-terminal glutaminyl residue or a modified amino acid in the second position. […] Due to the cyclization of the glutaminyl residue or its analog, respectively, a mass difference of the substrate and the product of catalysis is detected. In cases of ammonia liberation of one mole per mole of substrate, the conversion was also analyzed quantitatively using the spectrophotometric assay.

[9] = 0.05 M Tris-HCl, pH 8.0, 0.5 M KCl
[10] = recombinant human QC, buffer containing 1% DMSO

T1 sequence (Q16769 29-361): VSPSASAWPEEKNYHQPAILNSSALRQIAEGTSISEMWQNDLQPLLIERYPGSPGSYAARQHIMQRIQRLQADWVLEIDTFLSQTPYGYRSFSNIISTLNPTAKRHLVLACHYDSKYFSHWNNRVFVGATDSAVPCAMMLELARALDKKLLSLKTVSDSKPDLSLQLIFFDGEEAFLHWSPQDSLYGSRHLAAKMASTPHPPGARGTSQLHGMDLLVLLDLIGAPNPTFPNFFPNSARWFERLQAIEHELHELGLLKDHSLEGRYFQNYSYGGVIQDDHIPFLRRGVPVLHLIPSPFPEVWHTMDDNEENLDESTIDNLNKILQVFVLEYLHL

## Cn1cnc(CCN)c1 [1-methyl-4-(β-aminoethyl)-imidazole]
[1]
  inhibition of human QC: complete loss of inhibitory activity
[1]; Table 4, n.i. = no inhibition
  Ki value: n.i.

## c1ccc(-n2ccnc2)cc1 [1-phenylimidazole]
[1]
  inhibition of human QC: inactive under the experimental conditions

## O=C1CNC(=S)N1CCCn1ccnc1 [3-[3-(1H-imidazol-1-yl)propyl]-2-thioxoimidazolidin-4-one]
[1]; 30° C., 0.05 M Tris-HCl pH 8.0, 5 mM EDTA
  Ki: 810 ± 10 nM

## Oc1cccc2cccnc12 [8-hydroxyquinoline]
[2]
  inhibition of human QC catalyzed substrate cyclization by chelators: abolished

## O=C(O)CN(CCN(CC(=O)O)CC(=O)O)CC(=O)O [EDTA]
[3]
  inhibition of mammalian QC: did not inhibit
[2]
  inhibition of human QC catalyzed substrate cyclization by chelators: did not show remarkable inhibition

## N[C@@H](CCC(=O)O)C(=O)Nc1ccc2ccccc2c1 [Glu-βNA, H-Glu-βNA]
[4]; pH 6.0, 4 weeks
  limiting rate constant for nonenzymatic turnover (estimate, no product formed): ≤ 1e-09 s⁻¹
[5]
  conversion by human QC: Neither of these compounds were converted

## Cc1cc(=O)oc2cc(NC(=O)[C@@H](N)CCC(N)=O)ccc12 [H-Gln-AMC]
[6]; Table 6, n.r. = not reactive
  Km: 54 ± 2 µM
  kcat: 5.3 ± 0.1 s⁻¹

## C[C@H](NC(=O)[C@H](C)NC(=O)[C@@H](N)CCC(N)=O)C(N)=O [H-Gln-Ala-Ala-NH2] (H-Gln-Ala-Ala-NH2)
[6]; Table 7, substrate length
  kcat: 76.3 ± 0.7 s⁻¹

## C[C@H](NC(=O)[C@@H](N)CCC(N)=O)C(N)=O [H-Gln-Ala-NH2] (H-Gln-Ala-NH2)
[6]; Table 7, substrate length
  kcat: 40.1 ± 0.9 s⁻¹

## C[C@H](NC(=O)[C@@H](N)CCC(N)=O)C(=O)O [H-Gln-Ala-OH] (H-Gln-Ala-OH)
[6]
  Km: 232 ± 5 µM
[6]; 0.05 M Tris-HCl, pH 8.0
  kcat: 54.4 ± 0.5 s⁻¹
  Ki: n.i.
[6]; [9]
  kcat: 47.6 ± 0.6 s⁻¹
  Ki: n.i.
[6]; Table 6
  Ki*: n.i.
[6]; Table 6, n.r. = not reactive
  kcat: 57.2 ± 0.4 s⁻¹
[6]; pH 8
  Km: 269 µM and 357 µM

## NC(=O)CC[C@H](NC(=O)[C@@H](N)CCC(N)=O)C(=O)O [H-Gln-Gln-OH] (H-Gln-Gln-OH)
[7]
  Km: 175 ± 18 µM
[7]; discontinuous method
  kcat: 21.3 ± 0.6 s⁻¹
[6]
  Km: 148 ± 5 µM
[6]; Table 6
  Ki*: n.i.
[6]; Table 6, n.r. = not reactive
  kcat: 20.7 ± 0.2 s⁻¹

## NC(=O)CC[C@H](N)C(=O)N[C@@H](CCC(=O)O)C(=O)O [H-Gln-Glu-OH] (H-Gln-Glu-OH)
[6]; 0.05 M Tris-HCl, pH 8.0
  kcat: 21.4 ± 0.3 s⁻¹
  Ki: n.i.
[6]; [9]
  kcat: 18.9 ± 0.5 s⁻¹
  Ki: n.i.
[6]; Table 6
  Ki*: n.i.
[6]; Table 6, n.r. = not reactive
  kcat: 24.7 ± 0.2 s⁻¹
[6]; pH 8
  Km: 373 µM and 607 µM

## NC(=O)CC[C@H](N)C(N)=O [H-Gln-NH2]
[6]; 0.05 M Tris-HCl, pH 8.0
  Km: 442 ± 30 µM
  kcat: 12.8 ± 0.3 s⁻¹
  Ki: n.i.
[6]; [9]
  kcat: 12.2 ± 0.1 s⁻¹
  Ki: n.i.
[6]; Table 6
  Ki*: n.i.
[6]; Table 6, n.r. = not reactive
  kcat: 12.8 ± 0.5 s⁻¹

## NC(=O)CC[C@H](N)C(=O)O [H-Gln-OH]
[6]; Table 6, n.r. = not reactive
  KM: n.r.
  kcat: n.r.

## CC(C)(C)OC(=O)C(N)CCC(N)=O (stereo not drawn) [H-Gln-OtBu]
[6]; Table 6
  Ki*: n.i.
[6]; Table 6, n.r. = not reactive
  Km: 1240 ± 74 µM
  kcat: 6.7 ± 0.2 s⁻¹

## NC(=O)CC[C@H](N)C(=O)N[C@@H](Cc1ccc(O)cc1)C(=O)O [H-Gln-Tyr-OH] (H-Gln-Tyr-OH)
[6]
  Km: 211 ± 5 µM
[6]; Table 6
  Ki*: n.i.
[6]; Table 6, n.r. = not reactive
  kcat: 94 ± 1 s⁻¹

## CC(C)[C@H](NC(=O)[C@@H](N)CCC(N)=O)C(=O)O [H-Gln-Val-OH] (H-Gln-Val-OH)
[6]
  Km: 196 ± 5 µM
[6]; Table 6
  Ki*: n.i.
[6]; Table 6, n.r. = not reactive
  kcat: 17.2 ± 0.1 s⁻¹

## NC(=O)CC[C@H](N)C(=O)Nc1ccc2ccccc2c1 [H-Gln-βNA]
[4]; pH 6.0, followed for 4 weeks
  first-order rate constant of nonenzymatic pGlu-formation: 1.2*10^−7 s^−1
[6]
  kcat: 20.6 ± 0.5 s⁻¹
[6]; pH 8
  kcat: 21.7 ± 0.5 s⁻¹ and 20.0 ± 0.4 s⁻¹

## COC(=O)CC[C@H](N)C(=O)N[C@@H](Cc1ccccc1)C(=O)N[C@@H](CCCCN)C(=O)N[C@@H](CCCNC(=N)N)C(=O)N[C@@H](CC(C)C)C(=O)N[C@@H](C)C(N)=O [H-Glu(OMe)-Phe-Lys-Arg-Leu-Ala-NH2] (H-E(OMe)FKRLA-NH2)
[5]
  inhibition of human QC by the peptide: not inhibited

## COC(=O)CC[C@H](N)C(=O)Nc1ccc2ccccc2c1 [H-Glu(OMe)-βNA, H-Glu(OMe)-β-naphthylamide]
[4]
  stability in Tris and Tricine buffers (non-enzymatically catalyzed cyclization): remarkable instability
[5]
  conversion by human QC: Neither of these compounds were converted

## O=S(=O)([O-])[O-].[Zn+2] [ZnSO4]
[2]; metal ion incubation in presence of 0.5 mM EDTA
  restoration of QC activity after inactivation: Near-total restoration

## O=C(O)c1cccc(C(=O)O)n1 [dipicolinic acid]
[2]
  inactivation of human QC after extensive dialysis: almost completely inactivated
  inhibition of human QC catalyzed substrate cyclization by chelators: abolished

## H-EFKRLA-NH2 [H-Glu-Phe-Lys-Arg-Leu-Ala-NH2]
[5]
  inhibition of human QC by the peptide: not inhibited

## H-Gln(NMe)-Phe-Lys-Ala-Glu-NH2 (H-QFKAE-NH2; not fully specified (residue 1); printed as H-Gln(NMe)-Phe-Lys-Ala-Glu-NH2)
[8]
  conversion by human QC: not recognized by human QC; also recorded: No substrate conversion was observed
[5]
  inhibition of human QC by the peptide: not detected

## H-Gln-Lys(Gln)-Arg-Leu-Ala-NH2 (H-QK(Gln)RLA-NH2; SMILES CC(C)C[C@H](NC(=O)[C@H](CCCNC(=N)N)NC(=O)[C@H](CCCCNC(=O)[C@@H](N)CCC(N)=O)NC(=O)[C@@H](N)CCC(N)=O)C(=O)N[C@@H](C)C(N)=O) [H-Gin-Lys(Gln)-Arg-Leu-Ala-NH2]
[8]
  conversion by human QC: converted

## H-Gln-cyclo(Nε-Lys-Arg-Pro-Ala-Gly-Phe) (H-QKRPAGF; lactam 2-C; SMILES C[C@@H]1NC(=O)[C@@H]2CCCN2C(=O)[C@H](CCCNC(=N)N)NC(=O)[C@@H](NC(=O)[C@@H](N)CCC(N)=O)CCCCNC(=O)[C@H](Cc2ccccc2)NC(=O)CNC1=O)
[6]
  Km: 240 ± 14 µM
  kcat (turnover number): 22.8 ± 0.6 s⁻¹

## H-QAAAA-NH2 [H-Gln-Ala-Ala-Ala-Ala-NH2]
[6]; Table 7, substrate length
  Km: 65 ± 3 µM
  kcat: 60.5 ± 0.7 s⁻¹

## H-QAASAA-NH2 [H-Gln-Ala-Ala-Ser-Ala-Ala-NH2]
[6]; Table 7, substrate length
  Km: 79 ± 6 µM
  kcat: 55.3 ± 1.6 s⁻¹

## H-βhomoGln-Phe-Lys-Arg-Leu-Ala-NH2 (H-[β3hQ]FKRLA-NH2; SMILES CC(C)C[C@H](NC(=O)[C@H](CCCNC(=N)N)NC(=O)[C@H](CCCCN)NC(=O)[C@H](Cc1ccccc1)NC(=O)C[C@@H](N)CCC(N)=O)C(=O)N[C@@H](C)C(N)=O)
[6]
  Km: 2500 ± 200 µM
  fold reduced efficiency of cyclization compared to peptides of similar size with N-terminal glutaminyl residue: approximately 1000 fold
  kcat (turnover number): 3.5 ± 0.1 s⁻¹

## QFRHDSGYEVHHQKLVFFA-NH2 [[Gln^3]Aβ3-21a]
[6]; [10]
  Km: 162 ± 12 µM
  kcat: 62 ± 3 s⁻¹

## [Gln^1]-GnRH: GnRH with N-terminal glutamine: QHWSYGL RP(G) amide
[6]; Table 1
  Km: 53 ± 3 µM
  kcat: 69.2 ± 1.1 s⁻¹

## reduced 6-methylpterin
[3]
  inhibition of mammalian QC: Inhibition of a mammalian QC was only detected
